Key:
Assay type in all cases: in vivo
Triticum aestivum = assay: Test Example 4: effect on crop by application to foliage (diluvial soil, plastic box); conditions: for e: Application herbicide amount 320 g/ha, effect on crop
In short: (§1)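 Plants were grown in sterilized diluvial soil in a greenhouse at 25-30° C for 14 days, then sprayed on stems and leaves with water-diluted emulsion formulation at set rates in g/ha. Weed control and crop injury were scored 3 weeks after treatment on a 0-5 herbicidal-ratio scale, from 0 (≤5%) to 5 (≥90%).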

Glycine max = assay: as above; conditions: for c: Application herbicide amount 320 g/ha, effect on crop
In short: as §1

[1] = system: Beta vulgaris ssp. vulgaris; assay: as above; conditions: for f: Application herbicide amount 320 g/ha, effect on crop
In short: as §1

[2] = system: directly sowed Oryza sativa; assay: as above; conditions: for d: Application herbicide amount 320 g/ha, effect on crop
In short: as §1

Zea mays = assay: as above; conditions: for b: Application herbicide amount 320 g/ha, effect on crop
In short: as §1

Brassica campestris L. = assay: as above; conditions: for g: Application herbicide amount 320 g/ha, effect on crop
In short: as §1

Scirpus juncoides = assay: Test Example 1: herbicidal activity, application before weed generation in submerged conditions; conditions: Application herbicide amount 320 g/ha; Seventeenth Table
In short: (§2)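 Pre-emergence application to water surface of submerged pots (4 cm depth, alluvial soil) on sowing day, with 2.5-leaf rice transplanted; emulsion diluted to g/ha rates. Grown in greenhouse at 25–30 °C; 0–5 herbicidal/crop-effect score after three weeks.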

Monochoria vaginalis = assay: as above; conditions: Application herbicide amount 320 g/ha; Seventeenth Table
In short: as §2

[3] = system: Echinochloa oryzacola Vasing.; assay: as above; conditions: Application herbicide amount 320 g/ha; Seventeenth Table
In short: as §2

[4] = system: transplanted Oryza sativa; assay: Test Example 1: effect on crop, application before weed generation in submerged conditions; conditions: Application herbicide amount 320 g/ha; Seventeenth Table
In short: as §2

Chenopodium album = assay: Test Example 4: herbicidal effect by application to foliage (diluvial soil, plastic box); conditions: for O: Application herbicide amount 320 g/ha
In short: as §1

Digitaria ciliaris = assay: as above; conditions: for F: Application herbicide amount 320 g/ha
In short: as §1

Abutilon theophrasti = assay: as above; conditions: for M: Application herbicide amount 320 g/ha
In short: as §1

Apera spica-venti. = assay: as above; conditions: for L: Application herbicide amount 320 g/ha
In short: as §1

Avena fatua = assay: as above; conditions: for I: Application herbicide amount 320 g/ha
In short: as §1

Setaria viridis = assay: as above; conditions: for G: Application herbicide amount 320 g/ha
In short: as §1

Galium spurium = assay: as above; conditions: for Q: Application herbicide amount 320 g/ha
In short: as §1

Alopecurus myosuroides = assay: as above; conditions: for J: Application herbicide amount 320 g/ha
In short: as §1

[5] = system: Echinochloa crus-galli var. crus-galli; assay: as above; conditions: for H: Application herbicide amount 320 g/ha
In short: as §1

Lolium multiflorum Lam. = assay: as above; conditions: for K: Application herbicide amount 320 g/ha
In short: as §1

Veronica persica = assay: as above; conditions: for R: Application herbicide amount 320 g/ha
In short: as §1

[6] = application to foliage, application herbicide amount 320 g/ha

SMILES | B: Scirpus juncoides (herbicidal effect grade) (Scirpus juncoides) | C: Monochoria vaginalis (herbicidal effect grade) (Monochoria vaginalis) | A: Echinochloa oryzicola Vasing. (herbicidal effect grade) [3] | a: transplanted Oryza sativa (effect on crop grade) [4] | e (Triticum aestivum) | c (Glycine max) | f [1] | d [2] | b (Zea mays) | g (Brassica campestris L.) | O (Chenopodium album) | F (Digitaria ciliaris) | M (Abutilon theophrasti) | L (Apera spica-venti.) | I (Avena fatua) | G (Setaria viridis) | Q (Galium spurium) | J (Alopecurus myosuroides) | H [5] | K (Lolium multiflorum Lam.) | other results
COCc1nnc2c(C(=O)Nc3nnc(C)o3)ccc(C(F)(F)F)n12 [1-015] | 3 (Herbicidal ratio of 40% or more and less than 70%) | 3 (Herbicidal ratio of 40% or more and less than 70%) | 2 (Herbicidal ratio of 20% or more and less than 40%) | 0 (Herbicidal ratio of 5% or less (almost no effect)) | – | – | – | – | – | – | – | – | – | – | – | – | – | – | – | – | e (Triticum aestivum) effect on crop (Triticum aestivum; [6]): 2 (Herbicidal ratio of 20% or more and less than 40%); c (Glycine max) effect on crop (Glycine max; [6]): 1 (Herbicidal ratio of 5% or more and less than 20%); f (Beta vulgaris ssp. vulgaris) effect on crop [1, 6]: 5 (Herbicidal ratio of 90% or more (almost completely withered)); d (directly sowed Oryza sativa) effect on crop [2, 6]: 4 (Herbicidal ratio of 70% or more and less than 90%); b (Zea mays) effect on crop (Zea mays; [6]): 0 (Herbicidal ratio of 5% or less (almost no effect)); g (Brassica campestris L.) effect on crop (Brassica campestris L.; [6]): 4 (Herbicidal ratio of 70% or more and less than 90%); O (Chenopodium album) herbicidal effect (Chenopodium album; [6]): 5 (Herbicidal ratio of 90% or more (almost completely withered)); F (Digitaria ciliaris) herbicidal effect (Digitaria ciliaris; [6]): 4 (Herbicidal ratio of 70% or more and less than 90%); M (Abutilon theophrasti) herbicidal effect (Abutilon theophrasti; [6]): 5 (Herbicidal ratio of 90% or more (almost completely withered)); L (Apera spica-venti.) herbicidal effect (Apera spica-venti.; [6]): 3 (Herbicidal ratio of 40% or more and less than 70%); I (Avena fatua) herbicidal effect (Avena fatua; [6]): 3 (Herbicidal ratio of 40% or more and less than 70%); G (Setaria viridis) herbicidal effect (Setaria viridis; [6]): 3 (Herbicidal ratio of 40% or more and less than 70%); Q (Galium spurium) herbicidal effect (Galium spurium; [6]): 3 (Herbicidal ratio of 40% or more and less than 70%); J (Alopecurus myosuroides) herbicidal effect (Alopecurus myosuroides; [6]): 1 (Herbicidal ratio of 5% or more and less than 20%); H (Echinochloa crus-galli var. crus-galli) herbicidal effect [5, 6]: 5 (Herbicidal ratio of 90% or more (almost completely withered)); K (Lolium multiflorum Lam.) herbicidal effect (Lolium multiflorum Lam.; [6]): 1 (Herbicidal ratio of 5% or more and less than 20%); R (Veronica persica) herbicidal effect (Veronica persica; [6]): 5 (Herbicidal ratio of 90% or more (almost completely withered))
Cc1nnc(NC(=O)c2cc(C)c(C(F)(F)F)n3c(C(C)C)nnc23)o1 [1-075] | 0 (Herbicidal ratio of 5% or less (almost no effect)) | 2 (Herbicidal ratio of 20% or more and less than 40%) | 2 (Herbicidal ratio of 20% or more and less than 40%) | 0 (Herbicidal ratio of 5% or less (almost no effect)) | 0 (Herbicidal ratio of 5% or less (almost no effect)) | 0 (Herbicidal ratio of 5% or less (almost no effect)) | 1 (Herbicidal ratio of 5% or more and less than 20%) | 0 (Herbicidal ratio of 5% or less (almost no effect)) | 0 (Herbicidal ratio of 5% or less (almost no effect)) | 1 (Herbicidal ratio of 5% or more and less than 20%) | 5 (Herbicidal ratio of 90% or more (almost completely withered)) | 3 (Herbicidal ratio of 40% or more and less than 70%) | 1 (Herbicidal ratio of 5% or more and less than 20%) | 0 (Herbicidal ratio of 5% or less (almost no effect)) | 0 (Herbicidal ratio of 5% or less (almost no effect)) | 1 (Herbicidal ratio of 5% or more and less than 20%) | 0 (Herbicidal ratio of 5% or less (almost no effect)) | 0 (Herbicidal ratio of 5% or less (almost no effect)) | 3 (Herbicidal ratio of 40% or more and less than 70%) | 0 (Herbicidal ratio of 5% or less (almost no effect)) | R (Veronica persica): 3 (Herbicidal ratio of 40% or more and less than 70%)
Cc1nnc(NC(=O)c2ccc(C(F)(F)F)n3c(-c4ccc(Cl)nc4)nnc23)o1 [1-054] | 3 (Herbicidal ratio of 40% or more and less than 70%) | 4 (Herbicidal ratio of 70% or more and less than 90%) | 5 (Herbicidal ratio of 90% or more (almost completely withered)) | 2 (Herbicidal ratio of 20% or more and less than 40%) | 3 (Herbicidal ratio of 40% or more and less than 70%) | 1 (Herbicidal ratio of 5% or more and less than 20%) | 4 (Herbicidal ratio of 70% or more and less than 90%) | 3 (Herbicidal ratio of 40% or more and less than 70%) | 0 (Herbicidal ratio of 5% or less (almost no effect)) | 4 (Herbicidal ratio of 70% or more and less than 90%) | 5 (Herbicidal ratio of 90% or more (almost completely withered)) | 5 (Herbicidal ratio of 90% or more (almost completely withered)) | 5 (Herbicidal ratio of 90% or more (almost completely withered)) | 3 (Herbicidal ratio of 40% or more and less than 70%) | 3 (Herbicidal ratio of 40% or more and less than 70%) | 4 (Herbicidal ratio of 70% or more and less than 90%) | 4 (Herbicidal ratio of 70% or more and less than 90%) | 3 (Herbicidal ratio of 40% or more and less than 70%) | 5 (Herbicidal ratio of 90% or more (almost completely withered)) | 3 (Herbicidal ratio of 40% or more and less than 70%) | R (Veronica persica): 5 (Herbicidal ratio of 90% or more (almost completely withered))
Cc1cc(-c2nnc3c(C(=O)Nc4nnc(C)o4)ccc(C(F)(F)F)n23)n(C)n1 [1-056] | 5 (Herbicidal ratio of 90% or more (almost completely withered)) | 4 (Herbicidal ratio of 70% or more and less than 90%) | 5 (Herbicidal ratio of 90% or more (almost completely withered)) | 3 (Herbicidal ratio of 40% or more and less than 70%) | 1 (Herbicidal ratio of 5% or more and less than 20%) | 4 (Herbicidal ratio of 70% or more and less than 90%) | 5 (Herbicidal ratio of 90% or more (almost completely withered)) | 4 (Herbicidal ratio of 70% or more and less than 90%) | 4 (Herbicidal ratio of 70% or more and less than 90%) | 5 (Herbicidal ratio of 90% or more (almost completely withered)) | 5 (Herbicidal ratio of 90% or more (almost completely withered)) | 5 (Herbicidal ratio of 90% or more (almost completely withered)) | 5 (Herbicidal ratio of 90% or more (almost completely withered)) | 3 (Herbicidal ratio of 40% or more and less than 70%) | 3 (Herbicidal ratio of 40% or more and less than 70%) | 5 (Herbicidal ratio of 90% or more (almost completely withered)) | 4 (Herbicidal ratio of 70% or more and less than 90%) | 2 (Herbicidal ratio of 20% or more and less than 40%) | 5 (Herbicidal ratio of 90% or more (almost completely withered)) | 2 (Herbicidal ratio of 20% or more and less than 40%) | R (Veronica persica): 5 (Herbicidal ratio of 90% or more (almost completely withered))
